Data published in US20210379066A1, “COMBINATIONS OF POSITIVE ALLOSTERIC MODULATORS AND NICOTINIC ACETYLCHOLINE RECEPTOR AGONISTS FOR TREATING OCULAR CONDITIONS” (Oyster Point Pharma, Inc., priority 2018, published 2021).
“Also recorded” adds a separate entry of the source.

What was measured:
human alpha4beta2 nAChRs [1] = biological target: T1, human alpha4beta2 nAChRs (Homo sapiens, UniProt P17787+P43681); assay: Positive allosteric modulation of agonist-evoked currents, two-electrode voltage clamp in Xenopus oocytes (Example 1); format: cell-based
T1 construct: expressed in transfected cells; host or cells: Xenopus laevis oocytes (cDNA injection)
T1 sequence (P43681 29-627 limits assumed): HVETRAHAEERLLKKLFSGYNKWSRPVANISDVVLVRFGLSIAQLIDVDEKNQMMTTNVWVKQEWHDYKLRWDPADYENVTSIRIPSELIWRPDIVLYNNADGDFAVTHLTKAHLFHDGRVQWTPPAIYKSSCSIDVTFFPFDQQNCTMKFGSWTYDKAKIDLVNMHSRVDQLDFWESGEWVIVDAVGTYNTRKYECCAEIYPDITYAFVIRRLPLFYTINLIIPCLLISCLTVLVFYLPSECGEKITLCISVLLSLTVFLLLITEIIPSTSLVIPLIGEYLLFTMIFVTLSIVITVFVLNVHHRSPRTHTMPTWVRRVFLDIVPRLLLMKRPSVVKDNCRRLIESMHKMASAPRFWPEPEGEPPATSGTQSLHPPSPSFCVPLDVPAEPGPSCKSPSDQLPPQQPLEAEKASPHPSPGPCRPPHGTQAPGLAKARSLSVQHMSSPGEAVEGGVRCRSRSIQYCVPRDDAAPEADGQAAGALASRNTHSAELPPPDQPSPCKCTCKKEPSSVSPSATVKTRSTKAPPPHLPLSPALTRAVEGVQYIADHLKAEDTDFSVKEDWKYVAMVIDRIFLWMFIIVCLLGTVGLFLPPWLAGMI
T1 sequence (P17787 26-502): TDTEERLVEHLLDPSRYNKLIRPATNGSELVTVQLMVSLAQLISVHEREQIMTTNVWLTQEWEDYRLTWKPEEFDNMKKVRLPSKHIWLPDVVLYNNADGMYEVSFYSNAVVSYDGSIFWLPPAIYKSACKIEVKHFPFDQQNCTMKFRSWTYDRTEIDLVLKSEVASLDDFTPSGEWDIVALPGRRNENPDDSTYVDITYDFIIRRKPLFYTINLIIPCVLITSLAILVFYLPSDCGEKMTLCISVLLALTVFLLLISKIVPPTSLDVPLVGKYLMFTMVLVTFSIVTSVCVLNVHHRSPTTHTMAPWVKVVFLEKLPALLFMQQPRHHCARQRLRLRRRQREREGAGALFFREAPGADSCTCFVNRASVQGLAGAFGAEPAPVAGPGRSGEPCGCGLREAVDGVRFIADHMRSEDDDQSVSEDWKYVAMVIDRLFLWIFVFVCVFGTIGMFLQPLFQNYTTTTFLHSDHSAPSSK
Description: • Acetylcholine chloride • 100 mM stock solution in bi-distilled water 1.3 Test system • Apparatus: Automated Injection and Recording Apparatus, HiQScreen • Species of donor animals: Xenopus • Strain of animals: Laevis • Origin (supplier) of animals: HiQScreen Sàrl, Geneva • Body Weight of animals: 150 g to 300 g • Animal maintenance 3 to 5 per vivarium • Room temperature: 20-22° C. • Lighting times: Vivarium were exposed to daylight with additional artificial lighting (6 am-8 pm in summer; 8 am-7 pm in winter). • Food: Food pellets, ad libitum • Source of biological material • and isolation procedure: Abdominal incision to remove ovaries • Experimental conditions in Oocyte incubation: Barth solution containing in mM NaCl 88, • vitro: […] OR2 medium containing in mM: […] Two-electrode voltage clamp, using proprietary automated system equipped with a Geneclamp amplifier (Axon Instrument, Foster City, Calif., USA), or HiClamp (Multichannel Systems, Germany) Abbreviations: Ach, Acetylcholine; nAChR, Nicotinic acetylcholine receptor; SEM, Standard error of the mean; PAM, Positive allosteric modulator All experiments were carried out at human nAChRs expressed in Xenopus oocytes using the method of cDNA expression. Xenopus oocytes were prepared and injected using standard procedures. Briefly, ovaries were harvested from Xenopus Laevis females that have been deeply anesthetized by cooling at 4° C. and Tricaine methanesulfonate (MS-222 at a concentration of 150 mg/L) in sodium bicarbonate (300 mg/L). Once anesthetized the animal was decapitated and pithed following the rules of animal rights from the Geneva canton. […] All recordings were performed at 18° C. and cells superfused with OR2 medium containing in mM: […] Currents evoked by ACh or other agonists were recorded using an automated process equipped with standard two-electrode voltage-clamp configuration (TEVC). Data were captured and analyzed using a HiQScreen proprietary data acquisition and analysis software running under Matlab (Mathworks Inc.). […] Compounds were dissolved in OR2 as stock solution (1 mM) and the final dilution to the desired concentration was made on the day of the experiment. Injections of cDNAs encoding for the human alpha4beta2, were performed in at least 95 oocytes were performed using a proprietary automated injection device (Hogg et al., J. Neurosci. Methods, 2008) and receptor expression examined at least two days later. Oocytes were poked with two electrodes and their membrane potential maintained, unless indicated, at −80 mV throughout the experiment. A protocol to determine the allosteric modulation at the alpha4beta2 nAChRs in the oocytes expressing the receptor was developed. Oocytes expressing alpha4beta2 nAChRs were exposed to increasing concentrations of ACh while the response was evaluated. This was repeated with the addition of a fixed concentration of the allosteric modulator. The current evoked from the exposure to the agonist with the modulator was recorded and compared to currents evoked in the absence of the modulator. To assess the effects of positive allosteric modulators (Br-PBTC and NS-9283) a protocol of determination of the concentration activation curve in absence and presence of the PAM was designed. […] To assess the positive allosteric modulator effects of NS-9283 at the compound 1 hemi-galactarate dihydrate the same experimental protocol was conducted using 1 μM of the modulator. […] To further evaluate the PAM effects, the modulation was measured either as a first application and compared versus the subsequent agonist evoked response or, vice versa, by first exposing the cell to the agonist alone and then to the PAM and the agonist applied during a sustained PAM exposure. […] The same experiment was then conducted for compound 1 hemi-galactarate dihydrate as the agonist and Br-PBTC as the modulator or NS-9283 as the modulator.

human alpha4beta2 nAChRs [2] = biological target: T1, human alpha4beta2 nAChRs; assay: Desensitization by sustained (1 hour) agonist exposure and recovery, without and with PAM, Xenopus oocytes (Example 1); format: cell-based
[3] = presence vs absence of 1 μM PAM

Question: Which results are given for `O=C(N[C@@H]1CCCNC1)c1cc2cccc(Br)c2s1` [Br-PBTC, (R)-7-bromo-N-(piperidin-3-yl)benzo[b]thiophene-2-carboxamide]?
Answer: positive allosteric modulator activity in the presence of compound 1 hemi-galactarate dihydrate (human alpha4beta2 nAChRs [1]; 1 μM PAM): acts as a positive modulator; also recorded: potentiate the agonistic activity; dependence of potentiation on the order of agonist and PAM application (human alpha4beta2 nAChRs [1]; agonist compound 1 hemi-galactarate dihydrate): independent on the exposure protocol; maximal current evoked by compound 1 hemi-galactarate dihydrate (human alpha4beta2 nAChRs [1]; [3]): increase of the maximal evoked current; also recorded: increase of the amplitude of the current; shift of the concentration activation curve to compound 1 hemi-galactarate dihydrate (human alpha4beta2 nAChRs [1]; [3]): significant shift to the left; also recorded: shifted to the left; effect of PAM on recovery from varenicline tartrate desensitization (human alpha4beta2 nAChRs [2]; 300 μM varenicline tartrate 1 hour, 1 μM PAM, wash of 3 hours): almost complete recovery within 3 hours; also recorded: almost full recovery; also recorded: partially reversed; effect of PAM on amplitude of the current evoked by varenicline tartrate (human alpha4beta2 nAChRs [2]; 300 μM varenicline tartrate, 1 μM PAM): largely enhanced; effect of PAM on profile of compound 1 hemi-galactarate dihydrate desensitization and recovery (human alpha4beta2 nAChRs [2]; 1 mM agonist, co-application of 1 μM modulator): minimal effect
